Values quoted from earlier work as cited in patent publication US20260232611A1, “USE OF (S)-3-AMINO-4-(DIFLUOROMETHYLENYL) CYCLOPENT-1-ENE-1-CARBOXYLIC ACID IN THE TREATMENT OF RHEUMATOID ARTHRITIS” (Ovid Therapeutics Inc., priority 2023, published 2026).

How the values were obtained:
[1] = system: aspartate aminotransferase (Asp-AT); details: unlike vigabatrin
[2] = system: alanine aminotransferase (Ala-AT); details: unlike vigabatrin

**Q.** For `N[C@H]1C[C@@H](C(=O)O)CC1=C(F)F` [CPP-115, (1S,3S)-3-amino+difluoromethylenyl-1-cyclopentanoic acid], which “inactivation or inhibition of off-target enzyme” value [1] is on record?
**A.** Its value is “not to inactivate or inhibit”.

**Q.** And the “inactivation or inhibition of off-target enzyme” value [2]?
**A.** The value was “not to inactivate or inhibit”.
